Data reported in ChEMBL document CHEMBL1201862, “PubChem BioAssay data set” (2004).
Active and inactive are the calls of the source. Rule as the data show it: actives have a measured IC50 and inactives only a lower limit.

Target: Envelope glycoprotein gp160 (Human immunodeficiency virus 1, UniProt Q6QLK5)
Assay: cell-free HIV fusion peptide-binding blockers – biochemical, uHTS, fluorescence dequenching, […] (AID 1986)

Chain of Envelope glycoprotein gp160 (Q6QLK5 whole entry, the tested form may be a part): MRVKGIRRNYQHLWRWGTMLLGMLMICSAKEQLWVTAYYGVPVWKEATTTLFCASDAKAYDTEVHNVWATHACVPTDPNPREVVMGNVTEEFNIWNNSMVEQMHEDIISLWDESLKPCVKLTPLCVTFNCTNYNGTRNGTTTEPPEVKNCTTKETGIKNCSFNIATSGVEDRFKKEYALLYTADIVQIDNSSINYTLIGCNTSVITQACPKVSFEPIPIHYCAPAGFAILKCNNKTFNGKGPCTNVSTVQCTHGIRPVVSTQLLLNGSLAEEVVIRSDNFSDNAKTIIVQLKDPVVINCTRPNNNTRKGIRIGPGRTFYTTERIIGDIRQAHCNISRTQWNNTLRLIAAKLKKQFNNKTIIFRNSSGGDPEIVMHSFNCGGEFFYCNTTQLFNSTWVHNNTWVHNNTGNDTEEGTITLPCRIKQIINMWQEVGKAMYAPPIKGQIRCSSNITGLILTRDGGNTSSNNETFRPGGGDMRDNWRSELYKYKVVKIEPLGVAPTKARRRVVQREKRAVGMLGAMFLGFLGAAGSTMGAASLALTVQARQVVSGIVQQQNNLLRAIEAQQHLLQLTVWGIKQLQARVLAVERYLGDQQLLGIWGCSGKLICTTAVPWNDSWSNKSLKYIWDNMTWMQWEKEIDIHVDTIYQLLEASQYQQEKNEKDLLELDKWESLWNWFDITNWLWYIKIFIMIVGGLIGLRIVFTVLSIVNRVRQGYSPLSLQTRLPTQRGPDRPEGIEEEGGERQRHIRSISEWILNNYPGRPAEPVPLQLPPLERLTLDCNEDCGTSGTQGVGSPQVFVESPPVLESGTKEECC

Row | Structure (SMILES) | IC50
1 | O=C(O)c1cc(N2N=C(C(F)(F)F)/C(=C/C=C/c3ccco3)C2=O)ccc1Cl | 8.25 µM (active)
2 | CCN1C(=O)/C(=C\c2ccc(-c3ccc([N+](=O)[O-])cc3OC)o2)S/C1=N\c1cccc(C(=O)O)c1 | 29.4 µM (active)
